Laboratory results: US20230257374A1, “NOVEL KRAS G12C PROTEIN INHIBITOR, PREPARATION METHOD THEREFOR, AND USE THEREOF” (INNOVENT BIOLOGICS (SUZHOU) CO., LTD., priority 2019, published 2023)

Tests used:
[1] = in vitro; settings: microsomes, pH 7.4
Procedure: To examine the in vitro metabolic stability of the test compounds in liver microsomes of different species, representative compounds were selected, and their stability was evaluated by measuring the concentration of the test compounds in the incubation system using LC/MS/MS and calculating their intrinsic clearance in the microsome system.
The method is specifically as follows: each compound was first dissolved in DMSO to prepare a 200 μM working solution and added to the system solution at the time of testing to form a solution with a final concentration of 1 μM.
The microsomes were stored in a −80° C. freezer.
Preparation of incubation system: an incubation system was prepared as described in the table below.
25 μL, of NADPH or phosphate buffered saline was transferred to the incubation system described above, and 2 μL, of 200 μM of the test compound or verapamil was added. The sample with NADPH added was prepared in duplicate; the NADPH negative sample was prepared in single parallel. 30 μL, of suspension was taken at 0.5, 5, 15, 30 and 60 minutes. The reaction system was terminated by adding 180 μL, of acetonitrile containing an internal standard and vortexed for 10 min. […] 100 μL, of the supernatant was transferred to a feeding plate, and 100 μL, of purified water was added. The mixture was well mixed for UPLC-MS/MS analysis.
The results based on the data were obtained by calculation according to the peak area ratio, and the peak area was detected through an extracted ion chromatogram.
The slope value (k) was determined by linear fitting of the natural logarithm of drug elimination percentage over time.

[2] = target: T1, KRAS G12C protein (Homo sapiens, UniProt P01116, G12C); test: ERK protein phosphorylation assay (p-ERK) in H358 cells; type: cell-based; set-up: scale not given here; settings: H358 cells expressing KRAS G12C protein, 3 h incubation with compound; read-out: IC50, inhibiting phosphorylation of KRAS G12C protein-mediated downstream signaling (p-ERK)
T1 construct: H358 cells (ATCC, CRL-5807) expressing KRAS G12C protein; host or cells: H358 (NCI-H358) cells
T1 sequence (P01116 1-188 isoform P01116-2 G12C): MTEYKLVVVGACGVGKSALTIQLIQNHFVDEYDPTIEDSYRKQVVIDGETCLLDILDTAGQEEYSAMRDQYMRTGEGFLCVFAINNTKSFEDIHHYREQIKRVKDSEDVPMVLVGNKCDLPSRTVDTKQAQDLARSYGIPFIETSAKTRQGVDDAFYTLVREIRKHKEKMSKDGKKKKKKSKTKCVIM
Procedure: The cells were cultured in a 5% CO2 cell incubator for 16 h. The serially diluted compound was added to the cell medium with Echo550 at a final DMSO concentration of 0.5%, and the incubation was continued for 3 h. Then 8% paraformaldehyde (Solarbio, P1112) was added at 40 μL/well, followed by incubation at room temperature for 20 min. After one washing with PBS, cold 100% methanol was added at 40 μL/well for permeabilization for 10 min. […] Washing with PBST was performed 3 times, with 2 min of incubation for each washing. […] Washing with PBST was performed 3 times, with 2 min of incubation for each washing. Finally, the cell culture plate was inverted and centrifuged at 1000 rpm for 1 min, after which fluorescence signals were read using Odyssey CLx.

[3] = Stability test in human plasma
Procedure: To examine the stability of the test compounds in plasma, representative compounds were selected for evaluation.
Preparation of stock solution: a test compound was dissolved in DMSO to prepare a 1 mM stock solution for later use; Propantheline Bromide was dissolved in acetonitrile to prepare a 1 mM stock solution as a positive control for later use.
To each well was added 2 μL of the stock solution of the test compound and the stock solution of the positive control such that the final concentrations were 5 KM and the concentration of the organic solvent was 0.5%. Each compound was prepared in duplicate, followed by incubation at 37° C. 50 μL of samples were taken from the reaction samples in equal amounts at 0, 30, 60, 120, 180 and 240 minutes, and 450 μL of cold acetonitrile containing an internal standard was added to terminate the reaction. […] 100 μL of the supernatants were transferred to a new plate, dilute with ultra-pure water, and analyzed by LC-MS/MS.
Data results were calculated according to peak area ratios.
The percentage of remaining compound for each time point was calculated as follows:
Remaining percentagemin(%)=peak area ratiosmin/peak area ratiomin×100%
where peak area ratios represents the peak area ratio of the test compound to the internal standard compound at t min; peak area ratiomin represents the peak area ratio of the test compound to the internal standard compound at 0 min (initial).

A half-life at 1 μM ([1]; ICR (CD-1), mouse) of 12.3 min, a microsomal CLint at 1 μM ([1]; ICR (CD-1), mouse) of 113 µL/min/mg and a half-life at 1 μM ([1]; human) of 19.3 min were found for `[2H]C([2H])([2H])N1CCC[C@H]1COc1nc2c(c(N3CCN(C(=O)C(=C)F)[C@@H](CC#N)C3)n1)CCN(c1cccc3cccc(Cl)c13)C2` [Compound 18, 2-((S)-4-(7-(8-chloronaphthalen-1-yl)-2-(((S)-1-(methyl-d3)pyrrolidin-2-yl)methoxy)-5,6,7,8-tetrahydropyrido[3,4-d]pyrimidin-4-yl)-1-(2-fluoroacryloyl)piperazin-2-yl)acetonitrile] in this work. It also gave a microsomal CLint at 1 μM ([1]; human) of 72 µL/min/mg.
An IC50 [2] of under 1000 nM was found for `C=CC(=O)N1CCN(c2nc(OC[C@@H]3CCCN3[11CH3])nc3c2CCN(c2cccc4cccc(C)c24)C3)C[C@@H]1CC#N` [Compound 25, 2-((S)-1-acryloyl-4-(2-(((S)-1-(methyl-^11C)pyrrolidin-2-yl)methoxy)-7-(8-methylnaphthalen-1-yl)-5,6,7,8-tetrahydropyrido[3,4-d]pyrimidin-4-yl)piperazin-2-yl)acetonitrile] in this work.
An IC50 [2] of under 1000 nM was found for `C=CC(=O)N1CCN(c2nc(OC[C@@H]3CCCN3[13CH3])nc3c2CCN(c2cccc4cccc(C)c24)C3)C[C@@H]1CC#N` [Compound 26, 2-((S)-1-acryloyl-4-(2-(((S)-1-(methyl-^13C)pyrrolidin-2-yl)methoxy)-7-(8-methylnaphthalen-1-yl)-5,6,7,8-tetrahydropyrido[3,4-d]pyrimidin-4-yl)piperazin-2-yl)acetonitrile] in this work.
An IC50 [2] of under 1000 nM was found for `[2H]C([2H])([2H])N1CCC[C@H]1COc1nc2c(c(N3CCN(C(=O)C(=C)F)[C@@H](CC#N)C3)n1)CCN(c1cccc3cccc([14CH3])c13)C2` [Compound 29, 2-((S)-1-(2-fluoroacryloyl)-4-(2-(((S)-1-(methyl-d3)pyrrolidin-2-yl)methoxy)-7-(8-(methyl-^14C)naphthalen-1-yl)-5,6,7,8-tetrahydropyrido[3,4-d]pyrimidin-4-yl)piperazin-2-yl)acetonitrile] in this work.
An IC50 [2] of under 1000 nM was found for `[2H]C([2H])([2H])N1CCC[C@H]1COc1nc2c(c(N3CCN(C(=O)C=C)[C@@H](CC#N)C3)n1)CCN(c1cncc3cccc(C)c13)C2` [Compound 30, 2-((S)-1-acryloyl-4-(2-(((S)-1-(methyl-d3)pyrrolidin-2-yl)methoxy)-7-(5-methylisoquinolin-4-yl)-5,6,7,8-tetrahydropyrido[3,4-d]pyrimidin-4-yl)piperazin-2-yl)acetonitrile] in this work.
An IC50 [2] of under 1000 nM was found for `[2H]C([2H])([2H])N1CCC[C@H]1COc1nc2c(c(N3CCN(C(=O)C=C)[C@@H](CC#N)C3)n1)CCN(c1cncc3cccc([13CH3])c13)C2` [Compound 31, 2-((S)-1-acryloyl-4-(2-(((S)-1-(methyl-d3)pyrrolidine-2-yl)methoxy)-7-(5-(methyl-^13C)isoquinolin-4-yl)-5,6,7,8-tetrahydropyrido[3,4-d]pyrimidin-4-yl)piperazin-2-yl)acetonitrile] in this work.
An IC50 [2] of under 1000 nM was found for `[2H]C([2H])([2H])N1CCC[C@H]1COc1nc2c(c(N3CCN(C(=O)C=C)[C@@H](CC#N)C3)n1)CCN(c1cncc3cccc([14CH3])c13)C2` [Compound 32, 2-((S)-1-acryloyl-4-(2-(((S)-1-(methyl-d3)pyrrolidine-2-yl)methoxy)-7-(5-(methyl-^14C)isoquinolin-4-yl)-5,6,7,8-tetrahydropyrido[3,4-d]pyrimidin-4-yl)piperazin-2-yl)acetonitrile] in this work.
An IC50 [2] of under 1000 nM was found for `[2H]C([2H])([2H])CN1CCC[C@H]1COc1nc2c(c(N3CCN(C(=O)C=C)[C@@H](CC#N)C3)n1)CCN(c1cccc3cccc(C)c13)C2` [Compound 33, 2-((S)-1-acryloyl-4-(2-(((S)-1-(ethyl-2,2,2-d3)pyrrolidin-2-yl)methoxy)-7-(8-methylnaphthalen-1-yl)-5,6,7,8-tetrahydropyrido[3,4-d]pyrimidin-4-yl)piperazin-2-yl)acetonitrile] in this work.
An IC50 [2] of under 1000 nM was found for `[2H]C([2H])([2H])CN1CCC[C@H]1COc1nc2c(c(N3CCN(C(=O)C=C)[C@@H](CC#N)C3)n1)CCN(c1cccc3cccc(Cl)c13)C2` [Compound 34, 2-((S)-1-acryloyl-4-(7-(8-chloronaphthalene-1-yl)-2-(((S)-1-(ethyl-2,2,2-d3)pyrrolidin-2-yl)methoxy)-5,6,7,8-tetrahydropyrido[3,4-d]pyrimidin-4-yl)piperazin-2-yl)acetonitrile] in this work.
An IC50 [2] of under 1000 nM was found for `[2H]C([2H])([2H])C([2H])([2H])N1CCC[C@H]1COc1nc2c(c(N3CCN(C(=O)C=C)[C@@H](CC#N)C3)n1)CCN(c1cccc3cccc(C)c13)C2` [Compound 35, 2-((S)-1-acryloyl-4-(2-(((S)-1-(ethyl-d5)pyrrolidin-2-yl)methoxy)-7-(8-methylnaphthalen-1-yl)-5,6,7,8-tetrahydropyrido[3,4-d]pyrimidin-4-yl)piperazin-2-yl)acetonitrile] in this work.
An IC50 [2] of under 1000 nM was found for `[2H]C([2H])([2H])C([2H])([2H])N1CCC[C@H]1COc1nc2c(c(N3CCN(C(=O)C=C)[C@@H](CC#N)C3)n1)CCN(c1cccc3cccc(Cl)c13)C2` [Compound 36, 2-((S)-1-acryloyl-4-(7-(8-chloronaphthalene-1-yl)-2-(((S)-1-(ethyl-d5)pyrrolidin-2-yl)methoxy)-5,6,7,8-tetrahydropyrido[3,4-d]pyrimidin-4-yl)piperazin-2-yl)acetonitrile] in this work.
An IC50 [2] of under 1000 nM was found for `[2H]C([2H])([2H])C([2H])(N1CCC[C@H]1COc1nc2c(c(N3CCN(C(=O)C=C)[C@@H](CC#N)C3)n1)CCN(c1cccc3cccc(C)c13)C2)C([2H])([2H])[2H]` [Compound 37, 2-((S)-1-acryloyl-4-(7-(8-methylnaphthalen-1-yl)-2-(((S)-1-(isopropyl-d7)pyrrolidin-2-yl)methoxy)-5,6,7,8-tetrahydropyrido[3,4-d]pyrimidin-4-yl)piperazin-2-yl)acetonitrile] in this work.
An IC50 [2] of under 1000 nM was found for `[2H]C([2H])([2H])C([2H])(N1CCC[C@H]1COc1nc2c(c(N3CCN(C(=O)C=C)[C@@H](CC#N)C3)n1)CCN(c1cccc3cccc(Cl)c13)C2)C([2H])([2H])[2H]` [Compound 38, 2-((S)-1-acryloyl-4-(7-(8-chloronaphthalene-1-yl)-2-(((S)-1-(isopropyl-d7)pyrrolidin-2-yl)methoxy)-5,6,7,8-tetrahydropyrido[3,4-d]pyrimidin-4-yl)piperazin-2-yl)acetonitrile] in this work.
An IC50 [2] of under 1000 nM was found for `C=CC(=O)N1CCN(c2nc(OC[C@@H]3CCCN3[14CH3])nc3c2CCN(c2cccc4cccc(C)c24)C3)C[C@@H]1CC#N` [Compound 39, 2-((S)-1-acryloyl-4-(2-(((S)-1-(methyl-^14C)pyrrolidin-2-yl)methoxy)-7-(8-methylnaphthalen-1-yl)-5,6,7,8-tetrahydropyrido[3,4-d]pyrimidin-4-yl)piperazin-2-yl)acetonitrile] in this work.
A half-life at 1 μM ([1]; ICR (CD-1), mouse) of 10 min, a microsomal CLint at 1 μM ([1]; ICR (CD-1), mouse) of 139 µL/min/mg and a half-life at 1 μM ([1]; human) of 19.8 min were found for `C=C(F)C(=O)N1CCN(c2nc(OC[C@@H]3CCCN3C)nc3c2CCN(c2cccc4cccc(Cl)c24)C3)C[C@@H]1CC#N` [MRTX849, reference compound] in this work. For the same compound, the microsomal CLint at 1 μM ([1]; human) was 70.2 µL/min/mg.
With `CC(C)[N+](C)(CCOC(=O)C1c2ccccc2Oc2ccccc21)C(C)C` [Propantheline Bromide, reference compound] the “Remaining percentage (%) 0 min” value ([3]; human plasma, 37° C., 0 min) was 100.00%, the “Remaining percentage (%) 30 min” value ([3]; human plasma, 37° C., 30 min) was 33.35% and the “Remaining percentage (%) 60 min” value ([3]; human plasma, 37° C., 60 min) was 7.71%. For the same compound, the “Remaining percentage (%) 120 min” value ([3]; human plasma, 37° C., 120 min) was 0.15%, the “Remaining percentage (%) 180 min” value ([3]; human plasma, 37° C., 180 min) was “BLOD” and the “Remaining percentage (%) 240 min” value ([3]; human plasma, 37° C., 240 min) was “BLOD”. The half-life at 5 μM ([3]; human, plasma) was 19 min.
